≈ marks a conversion by molar mass, not a printed value.
Assays:
ABL = ABL (Homo sapiens, UniProt P00519); experiment: Off-chip mobility-shift kinase assay (Caliper LABCHIP), ABL; conditions: for ABL AVG % Activity at 1.0E−06: concentration 1.0E−06; for ABL AVG % Activity at 1.0E−06 / ABL AVG % Activity at 1.0E−07 / ABL AVG % Activity at 1.0E−08 / ABL AVG % Activity at 1.0E−09 / ABL AVG % Activity at 1.0E−10 / ABL AVG % Activity at 3.0E−06 / ABL AVG % Activity at 3.0E−07 / ABL AVG % Activity at 3.0E−08 / ABL AVG % Activity at 3.0E−09 / ABL AVG % Activity at 3.0E−10: imatinib-corresponding compounds; for ABL AVG % Activity at 1.0E−07: concentration 1.0E−07; for ABL AVG % Activity at 1.0E−08: concentration 1.0E−08; for ABL AVG % Activity at 1.0E−09: concentration 1.0E−09; for ABL AVG % Activity at 1.0E−10: concentration 1.0E−10; for ABL AVG % Activity at 3.0E−06: concentration 3.0E−06; for ABL AVG % Activity at 3.0E−07: concentration 3.0E−07; for ABL AVG % Activity at 3.0E−08: concentration 3.0E−08; for ABL AVG % Activity at 3.0E−09: concentration 3.0E−09; for ABL AVG % Activity at 3.0E−10: concentration 3.0E−10
cKIT = cKIT (Homo sapiens, UniProt P10721); experiment: Off-chip mobility-shift kinase assay (Caliper LABCHIP), C-kit; conditions: for C-kit AVG % Activity at 1.0E−05: concentration 1.0E−05; for C-kit AVG % Activity at 1.0E−06: concentration 1.0E−06; for C-kit AVG % Activity at 1.0E−07: concentration 1.0E−07; for C-kit AVG % Activity at 1.0E−08: concentration 1.0E−08; for C-kit AVG % Activity at 3.0E−05: concentration 3.0E−05; for C-kit AVG % Activity at 3.0E−06: concentration 3.0E−06; for C-kit AVG % Activity at 3.0E−07: concentration 3.0E−07; for C-kit AVG % Activity at 3.0E−08: concentration 3.0E−08; for C-kit AVG % Activity at 3.0E−09: concentration 3.0E−09
Thermodynamic solubility = format: physicochemical; conditions: aqueous buffer, thermodynamic from solid; phosphate buffered saline, pH 7.4; ambient temperature overnight
Procedure: Test compound (2.5 mg of solid; n=1) is weighed in a clear glass vial and buffer (0.5 mL) is added (phosphate buffered saline, pH 7.4). The solution is agitated at ambient temperature overnight using a vial roller system. […] Duplicate aliquots (50 μL) are sampled from the filtrate and diluted with one volume of 0.1 N hydrochloric acid and methanol (1:1 v/v) before analysis by HPLC-UV. […] The concentration of test compound in the filtrate is quantified relative to the concentration standard.
Analysis is performed using a gradient HPLC-UV system with a total cycle time of six minutes.

[1] = Caco-2 permeability (bi-directional; pH 7.4/pH 7.4); format: in vitro ADME; conditions: human; for Papp A→B at 120 min, 10 μM: Caco-2, pH 7.4, read-out: Permeability (cm^2/s × 10^6); for efflux ratio at 120 min, 10 μM: Caco-2, ratio of B-A and A-B permeabilities
Procedure: Caco-2 cells are used as an in vitro model of the human intestinal epithelium and permit assessment of the intestinal permeability of potential drugs. Test compound is added to either the apical or basolateral side of a confluent monolayer of Caco-2 cells and permeability is measured by monitoring the appearance of the test compound on the opposite side of the membrane using LC-MS/MS. Apparent permeability (Papp) coefficients, efflux ratio for the test compound and recovery values were determined.
To measure the permeability of test compound in the apical to basolateral (A-B) and basolateral to apical (B-A) direction across Caco-2 cells.
Caco-2 cells obtained from the ATCC are used between passage numbers 40-60. Cells are seeded on to Millipore Multiscreen Caco-2 plates at 1×10^5 cells/cm^2. They are cultured for 20 days in DMEM and media is changed every two or three days. On day 20 the permeability study is performed.
On day 20, the monolayers are prepared by rinsing both basolateral and apical surfaces twice with HBSS at 37° C. Cells are then incubated with HBSS in both apical and basolateral compartments for 40 min to stabilize physiological parameters. HBSS is then removed from the apical compartment and replaced with test compound dosing solutions. […] The fluorescent integrity marker lucifer yellow is also included in the dosing solution. Analytical standards are made from dosing solutions. The apical compartment inserts are then placed into ‘companion’ plates containing fresh HBSS. For basolateral to apical (B-A) permeability determination the experiment is initiated by replacing buffer in the inserts then placing them in companion plates containing dosing solutions. At 120 minutes the companion plate is removed and apical and basolateral samples diluted for analysis by LC-MS/MS. Test compound permeability was assessed in duplicate. On each plate, compounds of known permeability characteristics were run as controls.
Test and control compounds were quantified by LC-MS/MS cassette analysis using a 5-point calibration with appropriate dilution of the samples. Cyprotex generic analytical conditions were used. The starting concentration (C0) and experimental recovery were calculated from both apical and basolateral compartment concentrations.
The integrity of the monolayers throughout the experiment was checked by monitoring lucifer yellow permeation using fluorimetric analysis. Lucifer yellow permeation is low if monolayers have not been damaged. […] If lucifer yellow Papp values are above QC limits in both replicate wells for a test compound, the compound was re-tested.
Data Analysis: The permeability coefficient for each compound (Papp) is calculated from the following equation: […]
wherein dQ/dt is the rate of permeation of the drug across the cells, C0 is the donor compartment concentration at time zero and A is the area of the cell monolayer. C0 is obtained from analysis of donor and receiver compartments at the end of the incubation period. It is assumed that all of the test compound measured after 120 minutes incubation was initially present in the donor compartment at 0 minutes. An efflux ratio (ER) is derived as follows:
Talinolol (a known P-gp substrate) is also included as a control compound to assess whether functional P-gp is present in the Caco-2 cell monolayer.

PDGFRβ = PDGFRβ (Homo sapiens, UniProt P09619); experiment: Off-chip mobility-shift kinase assay (Caliper LABCHIP), PDGFR; conditions: for PDGFR AVG % Activity at 1.0E−06: concentration 1.0E−06; for PDGFR AVG % Activity at 1.0E−07: concentration 1.0E−07; for PDGFR AVG % Activity at 1.0E−08: concentration 1.0E−08; for PDGFR AVG % Activity at 1.0E−09: concentration 1.0E−09; for PDGFR AVG % Activity at 1.0E−10: concentration 1.0E−10; for PDGFR AVG % Activity at 3.0E−06: concentration 3.0E−06; for PDGFR AVG % Activity at 3.0E−07: concentration 3.0E−07; for PDGFR AVG % Activity at 3.0E−08: concentration 3.0E−08; for PDGFR AVG % Activity at 3.0E−09: concentration 3.0E−09; for PDGFR AVG % Activity at 3.0E−10: concentration 3.0E−10
PDGFRβ, sequence (P09619 33-1106): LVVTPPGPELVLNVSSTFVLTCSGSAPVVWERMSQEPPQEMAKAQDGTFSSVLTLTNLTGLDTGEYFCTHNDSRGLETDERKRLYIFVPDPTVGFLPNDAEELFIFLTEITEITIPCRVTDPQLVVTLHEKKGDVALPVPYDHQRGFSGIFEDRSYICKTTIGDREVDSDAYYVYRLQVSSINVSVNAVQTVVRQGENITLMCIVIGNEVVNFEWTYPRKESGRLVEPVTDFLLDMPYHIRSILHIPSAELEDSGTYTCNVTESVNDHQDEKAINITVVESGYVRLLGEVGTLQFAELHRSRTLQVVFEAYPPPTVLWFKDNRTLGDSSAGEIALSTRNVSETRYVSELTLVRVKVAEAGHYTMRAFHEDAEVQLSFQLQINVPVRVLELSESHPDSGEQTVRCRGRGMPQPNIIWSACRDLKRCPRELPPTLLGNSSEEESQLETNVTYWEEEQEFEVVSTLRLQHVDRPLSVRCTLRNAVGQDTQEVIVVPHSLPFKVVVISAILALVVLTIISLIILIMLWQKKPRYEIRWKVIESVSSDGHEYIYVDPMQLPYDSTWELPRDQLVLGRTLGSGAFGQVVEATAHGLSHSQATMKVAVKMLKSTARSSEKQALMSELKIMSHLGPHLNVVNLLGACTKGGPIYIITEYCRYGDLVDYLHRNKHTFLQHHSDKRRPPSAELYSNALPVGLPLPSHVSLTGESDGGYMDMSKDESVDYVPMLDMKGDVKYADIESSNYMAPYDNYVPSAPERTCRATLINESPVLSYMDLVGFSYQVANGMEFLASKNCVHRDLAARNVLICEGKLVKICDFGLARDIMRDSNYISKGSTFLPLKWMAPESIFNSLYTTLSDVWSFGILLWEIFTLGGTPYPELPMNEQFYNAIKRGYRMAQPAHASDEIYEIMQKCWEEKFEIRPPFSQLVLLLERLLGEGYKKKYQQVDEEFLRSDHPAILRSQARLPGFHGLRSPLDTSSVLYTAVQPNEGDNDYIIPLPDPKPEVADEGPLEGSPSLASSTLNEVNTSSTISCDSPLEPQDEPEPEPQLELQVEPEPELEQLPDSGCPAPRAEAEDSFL

cKIT, sequence (P10721 26-976): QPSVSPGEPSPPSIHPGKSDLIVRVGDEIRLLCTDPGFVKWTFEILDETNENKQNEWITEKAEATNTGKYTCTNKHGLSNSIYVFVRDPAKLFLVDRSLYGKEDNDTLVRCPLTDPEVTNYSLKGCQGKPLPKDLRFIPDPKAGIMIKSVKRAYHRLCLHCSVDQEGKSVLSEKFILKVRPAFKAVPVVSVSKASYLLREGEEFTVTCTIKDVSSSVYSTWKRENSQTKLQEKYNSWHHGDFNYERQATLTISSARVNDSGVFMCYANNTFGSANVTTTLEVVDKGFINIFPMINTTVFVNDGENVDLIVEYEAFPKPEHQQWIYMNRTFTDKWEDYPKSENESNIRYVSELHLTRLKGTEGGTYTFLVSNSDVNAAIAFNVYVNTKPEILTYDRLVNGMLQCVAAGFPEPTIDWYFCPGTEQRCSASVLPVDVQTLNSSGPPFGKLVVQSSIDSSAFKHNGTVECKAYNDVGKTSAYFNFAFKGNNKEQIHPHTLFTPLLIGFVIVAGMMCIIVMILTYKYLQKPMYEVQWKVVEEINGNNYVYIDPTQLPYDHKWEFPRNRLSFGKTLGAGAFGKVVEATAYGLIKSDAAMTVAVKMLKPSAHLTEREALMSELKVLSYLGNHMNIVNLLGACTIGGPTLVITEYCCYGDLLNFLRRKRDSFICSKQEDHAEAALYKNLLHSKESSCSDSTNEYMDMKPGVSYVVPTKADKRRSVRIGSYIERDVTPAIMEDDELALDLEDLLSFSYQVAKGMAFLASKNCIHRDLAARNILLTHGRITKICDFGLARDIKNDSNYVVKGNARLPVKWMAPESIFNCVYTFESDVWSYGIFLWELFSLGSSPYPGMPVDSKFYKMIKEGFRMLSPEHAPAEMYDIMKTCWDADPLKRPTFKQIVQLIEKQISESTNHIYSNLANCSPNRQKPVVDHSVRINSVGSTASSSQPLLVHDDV
ABL, sequence (P00519 whole entry): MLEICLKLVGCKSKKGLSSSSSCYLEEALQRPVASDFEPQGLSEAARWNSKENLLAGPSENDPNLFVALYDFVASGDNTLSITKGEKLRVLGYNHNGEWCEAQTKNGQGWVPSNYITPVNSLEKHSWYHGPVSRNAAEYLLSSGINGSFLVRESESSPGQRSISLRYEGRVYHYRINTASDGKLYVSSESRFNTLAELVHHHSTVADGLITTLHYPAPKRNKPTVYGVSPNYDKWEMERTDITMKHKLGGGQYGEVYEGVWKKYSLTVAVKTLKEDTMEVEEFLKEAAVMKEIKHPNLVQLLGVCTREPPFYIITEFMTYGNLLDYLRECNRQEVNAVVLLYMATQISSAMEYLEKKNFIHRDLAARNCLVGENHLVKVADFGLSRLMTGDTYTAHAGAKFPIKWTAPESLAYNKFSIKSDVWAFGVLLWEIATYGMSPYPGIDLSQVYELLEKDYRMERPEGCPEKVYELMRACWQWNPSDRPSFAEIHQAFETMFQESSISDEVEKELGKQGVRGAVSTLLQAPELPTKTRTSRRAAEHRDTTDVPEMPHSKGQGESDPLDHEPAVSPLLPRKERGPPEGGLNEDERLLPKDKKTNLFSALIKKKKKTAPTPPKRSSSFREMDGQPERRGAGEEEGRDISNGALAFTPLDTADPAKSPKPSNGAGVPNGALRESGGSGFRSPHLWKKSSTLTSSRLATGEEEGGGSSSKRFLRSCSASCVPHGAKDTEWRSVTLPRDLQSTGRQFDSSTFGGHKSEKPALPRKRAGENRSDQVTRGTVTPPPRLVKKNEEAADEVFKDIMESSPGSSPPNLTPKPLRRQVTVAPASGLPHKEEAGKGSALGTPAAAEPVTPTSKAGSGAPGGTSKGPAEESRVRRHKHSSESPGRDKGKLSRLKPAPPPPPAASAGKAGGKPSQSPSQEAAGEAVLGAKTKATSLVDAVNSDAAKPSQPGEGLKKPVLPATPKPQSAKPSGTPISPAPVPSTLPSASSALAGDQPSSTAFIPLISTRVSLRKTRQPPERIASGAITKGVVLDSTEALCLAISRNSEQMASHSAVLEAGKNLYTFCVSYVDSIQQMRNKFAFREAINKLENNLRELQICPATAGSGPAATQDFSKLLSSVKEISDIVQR

| Compound | IC50 (ABL) | ABL AVG % Activity at 1.0E−06 (ABL) | ABL AVG % Activity at 1.0E−07 (ABL) | ABL AVG % Activity at 1.0E−08 (ABL) | ABL AVG % Activity at 1.0E−09 (ABL) | ABL AVG % Activity at 1.0E−10 (ABL) | ABL AVG % Activity at 3.0E−06 (ABL) | ABL AVG % Activity at 3.0E−07 (ABL) | ABL AVG % Activity at 3.0E−08 (ABL) | ABL AVG % Activity at 3.0E−09 (ABL) | ABL AVG % Activity at 3.0E−10 (ABL) | IC50 (cKIT) | C-kit AVG % Activity at 1.0E−05 (cKIT) | C-kit AVG % Activity at 1.0E−06 (cKIT) | C-kit AVG % Activity at 1.0E−07 (cKIT) | C-kit AVG % Activity at 1.0E−08 (cKIT) | C-kit AVG % Activity at 3.0E−05 (cKIT) | C-kit AVG % Activity at 3.0E−06 (cKIT) | C-kit AVG % Activity at 3.0E−07 (cKIT) | C-kit AVG % Activity at 3.0E−08 (cKIT) | also measured |
| --- | --- | --- | --- | --- | --- | --- | --- | --- | --- | --- | --- | --- | --- | --- | --- | --- | --- | --- | --- | --- | --- |
| COCCOCCOCCOCCOCCOCCOCCOCCOCCN1CCN(Cc2ccc(C(=O)Nc3ccc(C)c(Nc4nccc(-c5cccnc5)n4)c3)cc2)CC1 [mPEG9-N′-Imatinib] | 3800 nM | 69% | 84% | 93% | 97% | 97% | 49% | 79% | 89% | 96% | 97% | 550 nM | 2% | 35% | 82% | 91% | 0% | 12% | 64% | 92% | C-kit AVG % Activity at 3.0E−09 (cKIT): 95%; solubility (Thermodynamic solubility): 2500 µg/mL (≈ 2.81 mM); Papp A→B at 120 min, 10 μM [1]: 0.05 ± 0.02 ×10⁻⁶ cm/s; efflux ratio at 120 min, 10 μM [1]: 359; IC50 (PDGFRβ): 340 nM; PDGFR AVG % Activity at 1.0E−06 (PDGFRβ): 13%; PDGFR AVG % Activity at 1.0E−07 (PDGFRβ): 74%; PDGFR AVG % Activity at 1.0E−08 (PDGFRβ): 95%; PDGFR AVG % Activity at 1.0E−09 (PDGFRβ): 99%; PDGFR AVG % Activity at 1.0E−10 (PDGFRβ): 92%; PDGFR AVG % Activity at 3.0E−06 (PDGFRβ): 0%; PDGFR AVG % Activity at 3.0E−07 (PDGFRβ): 48%; PDGFR AVG % Activity at 3.0E−08 (PDGFRβ): 86%; PDGFR AVG % Activity at 3.0E−09 (PDGFRβ): 100%; PDGFR AVG % Activity at 3.0E−10 (PDGFRβ): 95% |
| COCCOCCOCCOCCOCCOCCOCCN1CCN(Cc2ccc(C(=O)Nc3ccc(C)c(Nc4nccc(-c5cccnc5)n4)c3)cc2)CC1 [mPEG7-N′-Imatinib] | ≥ 3000 nM | 69% | 83% | 92% | 96% | 96% | 52% | 78% | 88% | 96% | 97% | 2500 nM | 16% | 69% | 91% | 95% | 4% | 44% | 84% | 97% | C-kit AVG % Activity at 3.0E−09 (cKIT): 95%; solubility (Thermodynamic solubility): 3000 µg/mL (≈ 3.74 mM); Papp A→B at 120 min, 10 μM [1]: 0.3 ± 0.01 ×10⁻⁶ cm/s; efflux ratio at 120 min, 10 μM [1]: 75.7; IC50 (PDGFRβ): 310 nM; PDGFR AVG % Activity at 1.0E−06 (PDGFRβ): 18%; PDGFR AVG % Activity at 1.0E−07 (PDGFRβ): 76%; PDGFR AVG % Activity at 1.0E−08 (PDGFRβ): 91%; PDGFR AVG % Activity at 1.0E−09 (PDGFRβ): 98%; PDGFR AVG % Activity at 1.0E−10 (PDGFRβ): 95%; PDGFR AVG % Activity at 3.0E−06 (PDGFRβ): 0%; PDGFR AVG % Activity at 3.0E−07 (PDGFRβ): 43%; PDGFR AVG % Activity at 3.0E−08 (PDGFRβ): 91%; PDGFR AVG % Activity at 3.0E−09 (PDGFRβ): 93%; PDGFR AVG % Activity at 3.0E−10 (PDGFRβ): 100% |
| COCCOCCOCCOCCOCCNCc1ccc(C(=O)Nc2ccc(C)c(Nc3nccc(-c4cccnc4)n3)c2)cc1 [mPEG5-N-Imatinib] | ≥ 3000 nM | 74% | 86% | 95% | 97% | 96% | 66% | 80% | 92% | 96% | 96% | 440 nM | 1% | 28% | 82% | 92% | 0% | 9% | 59% | 91% | C-kit AVG % Activity at 3.0E−09 (cKIT): 96%; solubility (Thermodynamic solubility): 3400 µg/mL (≈ 5.27 mM); Papp A→B at 120 min, 10 μM [1]: 0.05 ± 0.02 ×10⁻⁶ cm/s; efflux ratio at 120 min, 10 μM [1]: 560; IC50 (PDGFRβ): 220 nM; PDGFR AVG % Activity at 1.0E−06 (PDGFRβ): 9%; PDGFR AVG % Activity at 1.0E−07 (PDGFRβ): 62%; PDGFR AVG % Activity at 1.0E−08 (PDGFRβ): 94%; PDGFR AVG % Activity at 1.0E−09 (PDGFRβ): 90%; PDGFR AVG % Activity at 1.0E−10 (PDGFRβ): 92%; PDGFR AVG % Activity at 3.0E−06 (PDGFRβ): 0%; PDGFR AVG % Activity at 3.0E−07 (PDGFRβ): 37%; PDGFR AVG % Activity at 3.0E−08 (PDGFRβ): 85%; PDGFR AVG % Activity at 3.0E−09 (PDGFRβ): 100%; PDGFR AVG % Activity at 3.0E−10 (PDGFRβ): 92% |

— patent US20120094998A1, “Oligomer-Protein Tyrosine Kinase Inhibitor Conjugates” (Nektar Therapeutics, priority 2009, published 2012)
